What was measured:
[1] = test system: PD patient fibroblasts (ND29542); assay: Rescue of PD patient fibroblasts from BSO plus iron-induced oxidative stress; assay type: cell-based, human; conditions: BSO (125 μM) plus iron (125 μM); for Max Rescue (@ 500 nM): 500 nM compound, unit assumed; for EC50: Homo sapiens, Fibroblast, concentration at which 50% maximal rescue of cell viability was observed
Description: An initial screen was performed to identify the effectiveness of compounds for the amelioration of PD and AD. Test samples and solvent controls were tested for their ability to rescue PD and AD fibroblasts stressed by addition of L-buthionine-(S,R)-sulfoximine (BSO, a specific inhibitor of GSH synthetase) plus iron (e.g. iron citrate), in a similar manner as that described in Jauslin et al., Hum. Mol. Genet. 11(24):3055 (2002), Jauslin et al., FASEB J. 17:1972-4 (2003), and International Patent Application WO 2004/003565. This specific BSO-mediated cell death was prevented or ameliorated by administration of compounds described herein.
The AD experiments were performed as follows. PD experiments were performed in a similar manner; certain specific conditions are noted below in Table 1A.
MEM (a medium enriched in amino acids and vitamins) and Medium 199 (M199) with Earle's Balanced Salts (EBS), without phenol red, were purchased from Invitrogen. Fetal Calf Serum was obtained from Corning. Basic fibroblast growth factor (bFGF) and epidermal growth factor (EGF) were purchased from PeproTech. Penicillin-streptomycin-glutamine mix, L-buthionine (S,R)-sulfoximine, iron citrate, and insulin from bovine pancreas were purchased from Sigma. Calcein AM was purchased from Anaspec. Cell Culture Medium was prepared by combining 450 mL MEM, 50 mL Fetal Calf Serum, 100 U/mL penicillin, and 100 microgram/mL streptomycin. Assay medium was prepared by combining 125 mL M199, 50 mL Fetal Calf Serum, 100 U/mL penicillin, 100 microgram/mL streptomycin, 2 mM glutamine, 10 microgram/mL insulin, 10 ng/mL EGF, and 10 ng/mL bFGF; MEM was added to make the volume up to 500 mL. 10 mM BSO and 10 mM iron citrate solutions were prepared in water with subsequent filter-sterilization and stored at −20° C.
The test samples were supplied in 1.5 mL glass vials or polypropylene vials. The compounds were diluted with DMSO, to result in a 1 mM stock solution. Once dissolved, they were stored at −20° C.
A culture of AD or PD patient-derived fibroblasts was started from a vial with approximately 500,000 cells stored in liquid nitrogen. Cells were propagated in Cell Culture Medium, with subcultivation every third day by trypsinization at a ratio of 1:3. Once confluent, fibroblasts were harvested by trypsinization, resuspended in Assay Medium, and seeded at a final cell density of 2,500 cells/0.1 mL per well of a standard 96-well tissue culture plate. […]
100 microliters of Calcein AM (1 microM) in PBS+Ca+Mg was then added to each well. […] After that time fluorescence (excitation/emission wavelengths of 485 nm and 525 nm, respectively) was read on a Spectramax fluorescence reader. Data were analyzed using standard four-parameter curve fit algorithms (XLFit or Prism) to determine the EC50 concentration for each compound.

[2] = test system: N27 rat dopaminergic cells overexpressing a truncated human αSynuclein-GFP fusion protein; assay: Inhibition of RSL3-induced αSynuclein aggregation in N27 cells; assay type: cell-based; conditions: 60 nM RSL3, 70 nM compound, 24 hr; for inhibition of RSL3-induced αSynuclein aggregation: vs RSL3 only (Dunnett's test)
Description: N27 rat dopaminergic cells (purchased from EMD Millipore, SCC048) were transformed to stably overexpress truncated α-Synuclein fused with green fluorescent protein (GFP) with a plasmid construct obtained from Origene (RG221446). Cells were maintained in selection media which consisted of RPMI 1640 media supplemented with 10% (v/v) fetal bovine serum (Millipore, ES-009-B), 1% (v/v) Pencillin-Streptomycin (Gibco, 15140-122), 1% (v/v) L-Glutamine (Gibco, 25030-081) and 500 μg/mL of G418 (Gibco, 10131-027).
N27 rat dopaminergic cells overexpressing a truncated (112 amino acid) human αSynuclein-GFP fusion protein, as described above, were maintained in normal culture conditions as described above. The day before the experiment, cells were plated in 96 well optical bottom, black walled plates at 3,000 cells/well, and maintained at 37° C. for 24 hr. The experiment was initiated by co-treating cells with (1S,3R)-methyl 2-(2-chloroacetyl)-1-(4-(methoxycarbonyl)phenyl)-2,3,4,9-tetrahydro-1H-pyrido[3,4-b]indole-3-carboxylate (1S,3R-RSL3, described by Yang et al., Cell 156:317-331 (2014)) (60 nM) and 70 nM compounds (2,3,5-trimethyl-6-nonylcyclohexa-2,5-diene-1,4-dione (C9), 2,3,5-trimethyl-6-octylcyclohexa-2,5-diene-1,4-dione (C8), or 2,3,5-trimethyl-6-heptylcyclohexa-2,5-diene-1,4-dione (C7)) using a D300e compound printer (Tecan), and placed back in the incubator at 37° C. for 24 hr. Cells were fixed with 4% paraformaldehyde for 15 minutes at room temperature, washed 3 times with Dulbecco's phosphate-buffered saline (DPBS) buffer, and then incubated at room temperature for 48 hr with 1% Triton-X 100 solution (in DPBS) to enable selective labeling of aggregated αSynuclein. Cells were then washed and standard immunocytochemistry (ICC) methods were employed to label total αSynuclein (mouse anti-αSynuclein, 1:250, BD Biosciences). Cells were incubated with primary antibody overnight at 4° C. and then washed with DPBS 3 times the following day. Cells were then incubated at room temperature with a fluorescently conjugated secondary antibody (goat anti-mouse Alexa 647, Invitrogen) for 2 hr at room temperature. 10 nM Hoechst was also added to label nuclei, and cells were imaged on a high-content imaging platform (ThermoFisher, HSC Cellomics Arrayscan) to quantify total aggregated αSynuclein (see FIG. 3A).
Statistical analysis of samples was performed via ordinary one-way ANOVA analysis with Dunnett's multiple comparisons test, comparing RSL3 only-treated vs. RSL3 plus compound-treated cells.

Row | Structure (SMILES) | Max Rescue (@ 500 nM) [1] | EC50 [1] | inhibition of RSL3-induced αSynuclein aggregation [2] | level of aggregation inhibition over C8 [2]
1 | CCCCCCCCC1=C(C)C(=O)C(C)=C(C)C1=O [Compound C8, 2,3,5-trimethyl-6-octylcyclohexa-2,5-diene-1,4-dione, reference compound] | 73% | > 500 nM | significant inhibition | –
2 | CCCCCCCCCC1=C(C)C(=O)C(C)=C(C)C1=O [Compound C9, 2,3,5-trimethyl-6-nonylcyclohexa-2,5-diene-1,4-dione] | 103% | 84 nM | significant inhibition | approximately 5.45 fold

Source: patent US20230339835A1, “2,3,5-TRIMETHYL-6-NONYLCYCLOHEXA-2,5-DIENE-1,4-DIONE FOR SUPPRESSING AND TREATING ALPHA-SYNUCLEINOPATHIES, TAUOPATHIES, AND OTHER DISORDERS” (PTC THERAPEUTICS, INC., priority 2018, published 2023)
